Measured values as given in patent US6677460B1, “Aromatic carboxylic acid bicyclic sulfur compounds” (Idemitsu Kosan Company, Limited, priority 1993, dated 2004).

Columns and labels:
Type in all cases: in vivo
velvetleaf [1] = experiment: Upland soil treatment test (5); conditions: dosage 100 g a.i./hectare, 20th day after treatment; also: ranges in brackets are in %
Protocol: (§1) 90 Parts by weight of the above carrier and 10 parts by weight of each of Compounds obtained in the above Preparation Examples were uniformly pulverized and mixed to obtain herbicides. Further, for Herbicide Comparative Examples, comparative herbicides were prepared by uniformly pulverizing and mixing 90 parts by weight of the above carrier and 10 parts by weight of each of the following Compounds x, y, A, B and C.
(§2) (5) Biological Test (Upland Soil Treatment Test, Herbicide Examples 10-26 and Comparative Example 9)
(§3) Seeds of weeds such as large crabgrass, barnyard grass, green foxtail, cocklebur, velvetleaf and slender amaranth and seeds of corn, wheat and barley were sown in 1/5,000-are Wagner pots filled with upland soil, and covered with upland soil. Then, a predetermined amount of the herbicide prepared in the above (1) was suspended in water and uniformly sprayed onto the soil surface. Thereafter, the plants were grown in the greenhouse, and on 20th day after the treatment, the herbicide was evaluated for herbicidal efficacy.
(§4) The dosage of each herbicide is indicated as an amount of the active ingredient per hectare. Further, air-dried weight were measured, and herbicidal efficacy and the pytotoxicity to corn are shown on the basis of the ratings described below.

green foxtail [2] = experiment: Upland soil treatment test (5); conditions: dosage 100 g a.i./hectare, 20th day after treatment; also: ranges in brackets are in %
Protocol: as §1, §2, §3, §4

large crabgrass [3] = experiment: Upland soil treatment test (5); conditions: dosage 100 g a.i./hectare, 20th day after treatment; also: ranges in brackets are in %
Protocol: as §1, §2, §3, §4

cocklebur [4] = experiment: Upland soil treatment test (5); conditions: dosage 100 g a.i./hectare, 20th day after treatment; also: ranges in brackets are in %
Protocol: as §1, §2, §3, §4

slender amaranth [5] = experiment: Upland soil treatment test (5); conditions: dosage 100 g a.i./hectare, 20th day after treatment; also: ranges in brackets are in %
Protocol: as §1, §2, §3, §4

barnyard grass [6] = experiment: Upland soil treatment test (5); conditions: dosage 100 g a.i./hectare, 20th day after treatment; also: ranges in brackets are in %
Protocol: as §1, §2, §3, §4

umbrella plant = experiment: Submergence soil treatment test (4); conditions: twenty days after treatment; also: ranges in brackets are in %
Protocol: as §1
(§5) (4) Biological Test (Submergence Soil Treatment Test, Herbicide Examples 5˜9 and Comparative Examples 5˜8 and Reference Example 1 and 2)
(§6) 1/15,500-are porcelain pots were filled with paddy field soil, and seeds of barnyard grass and umbrella plant were sown in a surface layer of the soil, and paddy rice at the 2-leaf stage was transplanted. Then, the weeds were treated by uniformly spraying a diluted solution of a predetermined amount of the herbicide prepared in the above (1) onto the water surface at the time of germination of the weeds, and then the pots were allowed to stand in a greenhouse while water was properly sprayed. […] The dosage of each herbicide is shown as an amount of the active ingredient per 10 areas. Further, air-dried weights were measured, and the herbicidal efficacy and the phytotoxicity to the paddy rice were shown as follows.

barnyard grass [7] = experiment: Submergence soil treatment test (4); conditions: twenty days after treatment; also: ranges in brackets are in %
Protocol: as §1, §5, §6

corn [8] = experiment: Upland soil treatment test (6), phytotoxicity; conditions: 100 g/hectare, 20th day after treatment; also: ranges in brackets are in %
Protocol: as §1
(§7) (6) Biological Test (Upland Soil Treatment Test, Herbicide Examples 27˜42 and Comparative Example 10).
(§8) Seeds of weeds such as large crabgrass, barnyard grass, green foxtail, cocklebur , velvetleaf and slender amaranth and seeds of corn, wheat and barley were sown in 1/5,000-are Wagner pots filled with upland soil, and covered with upland soil. Then, a predetermined amount of the herbicide prepared in the above (1) was suspended in water and uniformly sprayed onto the soil surface. Thereafter, the plants were grown in the greenhouse, and on 20th day after the treatment, the herbicide was evaluated f or herbicidal efficacy.
(§9) The dosage of each herbicide is indicated as an amount of the active ingredient per hectare. Further, air-dried weight were measured and the herbicidal efficacy and the phytotoxicity to corn are shown on the basis of the ratings described below.

paddy rice = experiment: Submergence soil treatment test (4), phytotoxicity; conditions: twenty days after treatment
Protocol: as §1, §5, §6

velvetleaf [9] = experiment: Upland soil treatment test (6); conditions: 100 g/hectare, 20th day after treatment; also: ranges in brackets are in %
Protocol: as §1, §7, §8, §9

green foxtail [10] = experiment: Upland soil treatment test (6); conditions: 100 g/hectare, 20th day after treatment; also: ranges in brackets are in %
Protocol: as §1, §7, §8, §9

large crabgrass [11] = experiment: Upland soil treatment test (6); conditions: 100 g/hectare, 20th day after treatment; also: ranges in brackets are in %
Protocol: as §1, §7, §8, §9

cocklebur [12] = experiment: Upland soil treatment test (6); conditions: 100 g/hectare, 20th day after treatment; also: ranges in brackets are in %
Protocol: as §1, §7, §8, §9

slender amaranth [13] = experiment: Upland soil treatment test (6); conditions: 100 g/hectare, 20th day after treatment; also: ranges in brackets are in %
Protocol: as §1, §7, §8, §9

barnyard grass [14] = experiment: Upland soil treatment test (6); conditions: 100 g/hectare, 20th day after treatment; also: ranges in brackets are in %
Protocol: as §1, §7, §8, §9

corn [15] = experiment: Upland soil treatment test (5), phytotoxicity; conditions: dosage 100 g a.i./hectare, 20th day after treatment
Protocol: as §1, §2, §3, §4

velvetleaf [16] = experiment: Upland soil treatment test (3); conditions: 20th day after treatment; also: ranges in brackets are in %
Protocol: as §1
(§10) (3) Biological Test (Upland Soil Treatment Test, Herbicide Examples 3 and 4 and Herbicide Comparative Examples 3 and 4)
(§11) Seeds of weeds such as large crabgrass, barnyardgrass, green foxtail, cocklebur, velvetleaf and slender amaranth and seeds of corn, wheat and barley were sown in 1/5,000-are Wagner pots filled with upland soil, and covered with upland soil. Then, a predetermined amount of the herbicide prepared in the above (1) was suspended in water and uniformly sprayed onto the soil surface. Thereafter, the plants were grown in the greenhouse, and on 20th day after the treatment, the herbicide was evaluated for herbicidal efficacy.
(§12) The herbicidal efficacy and the phytotoxicity to crops are shown on the basis of the ratings described in (2) Foliar treatment test.

green foxtail [17] = experiment: Upland soil treatment test (3); conditions: 20th day after treatment; also: ranges in brackets are in %
Protocol: as §1, §10, §11, §12

large crabgrass [18] = experiment: Upland soil treatment test (3); conditions: 20th day after treatment; also: ranges in brackets are in %
Protocol: as §1, §10, §11, §12

cocklebur [19] = experiment: Upland soil treatment test (3); conditions: 20th day after treatment; also: ranges in brackets are in %
Protocol: as §1, §10, §11, §12

slender amaranth [20] = experiment: Upland soil treatment test (3); conditions: 20th day after treatment; also: ranges in brackets are in %
Protocol: as §1, §10, §11, §12

barnyard grass [21] = experiment: Upland soil treatment test (3); conditions: 20th day after treatment; also: ranges in brackets are in %
Protocol: as §1, §10, §11, §12

velvetleaf [22] = experiment: Foliar treatment test (2); conditions: 20th day after treatment; also: ranges in brackets are in %
Protocol: as §1
(§13) (2) Biological Test (Foliar Treatment Test, Herbicide Examples 1 and 2 and Herbicide Comparative Examples 1 and 2)
as §3, with “The seeds were grown in a greenhouse, and at the stage of 1˜2 leaves of these plants,” for “Then,”, “leaf and stalk portions at a rate of 200 liter/10 are.” for “the soil surface.”
(§14) The herbicidal efficacy and phytotoxcity to crops were shown on the basis of the following ratings.
(§15) The ratio of remaining plant weight to non-treated was determined on the basis of the ratio of remaining plant weight to non-treated=(remaining plant weight in treated plot/remaining plant weight in non-treated plot)×100. This is also applicable to biological tests hereinafter.

green foxtail [23] = experiment: Foliar treatment test (2); conditions: 20th day after treatment; also: ranges in brackets are in %
Protocol: as §1, §13
as §3, with “The seeds were grown in a greenhouse, and at the stage of 1˜2 leaves of these plants,” for “Then,”, “leaf and stalk portions at a rate of 200 liter/10 are.” for “the soil surface.”
as §14, §15

large crabgrass [24] = experiment: Foliar treatment test (2); conditions: 20th day after treatment; also: ranges in brackets are in %
Protocol: as §1, §13
as §3, with “The seeds were grown in a greenhouse, and at the stage of 1˜2 leaves of these plants,” for “Then,”, “leaf and stalk portions at a rate of 200 liter/10 are.” for “the soil surface.”
as §14, §15

cocklebur [25] = experiment: Foliar treatment test (2); conditions: 20th day after treatment; also: ranges in brackets are in %
Protocol: as §1, §13
as §3, with “The seeds were grown in a greenhouse, and at the stage of 1˜2 leaves of these plants,” for “Then,”, “leaf and stalk portions at a rate of 200 liter/10 are.” for “the soil surface.”
as §14, §15

slender amaranth [26] = experiment: Foliar treatment test (2); conditions: 20th day after treatment; also: ranges in brackets are in %
Protocol: as §1, §13
as §3, with “The seeds were grown in a greenhouse, and at the stage of 1˜2 leaves of these plants,” for “Then,”, “leaf and stalk portions at a rate of 200 liter/10 are.” for “the soil surface.”
as §14, §15

barnyard grass [27] = experiment: Foliar treatment test (2); conditions: 20th day after treatment; also: ranges in brackets are in %
Protocol: as §1, §13
as §3, with “The seeds were grown in a greenhouse, and at the stage of 1˜2 leaves of these plants,” for “Then,”, “leaf and stalk portions at a rate of 200 liter/10 are.” for “the soil surface.”
as §14, §15

CCn1ncc(C(=O)c2ccc(S(C)(=O)=O)c(C(=O)OC)c2Cl)c1O [Comp'd A, reference compound]
Herbicidal Efficacy velvetleaf (velvetleaf [1]): 5 (0)
Herbicidal Efficacy green foxtail (green foxtail [2]): 4 (1-20)
Herbicidal Efficacy large crabgrass (large crabgrass [3]): 1 (61-80)
Herbicidal Efficacy cocklebur (cocklebur [4]): 1 (61-80)
Herbicidal Efficacy slender amaranth (slender amaranth [5]): 3 (21-40)
Herbicidal Efficacy barnyard grass (barnyard grass [6]): 2 (41-60)
Herbicidal Effficacy umbrella plant (umbrella plant; dosage 1 g a.i./10 are): 0 (81-100)
Herbicidal Effficacy umbrella plant (umbrella plant; dosage 3 g a.i./10 are): 4 (1-20)
Herbicidal Effficacy barnyard grass (barnyard grass [7]; dosage 1 g a.i./10 are): 1 (61-80)
Herbicidal Effficacy barnyard grass (barnyard grass [7]; dosage 3 g a.i./10 are): 4 (1-20)
Phytotoxicity to corn (corn [8]): 0 (100)
Phytotoxicity to paddy rice (paddy rice; dosage 1 g a.i./10 are): 0 (100)
Phytotoxicity to paddy rice (paddy rice; dosage 3 g a.i./10 are): 4 (0-79)
Herbicidal efficacy (E): velvetleaf (velvetleaf [9]): 5 (0)
Herbicidal efficacy (C): green foxtail (green foxtail [10]): 4 (1-20)
Herbicidal efficacy (A): large crabgrass (large crabgrass [11]): 1 (61-80)
Herbicidal efficacy (D): cocklebur (cocklebur [12]): 1 (61-80)
Herbicidal efficacy (F): slender amaranth (slender amaranth [13]): 3 (21-40)
Herbicidal efficacy (B): barnyard grass (barnyard grass [14]): 2 (41-60)
Phyto-toxicity to corn (corn [15]): 0 (100)

CCn1ncc(C(=O)c2ccc3c(c2C)C(C)(C)CCS3)c1O [Compound 2]
Herbicidal Efficacy velvetleaf (velvetleaf [1]): 5 (0)
Herbicidal Efficacy green foxtail (green foxtail [2]): 5 (0)
Herbicidal Efficacy large crabgrass (large crabgrass [3]): 5 (0)
Herbicidal Efficacy cocklebur (cocklebur [4]): 5 (0)
Herbicidal Efficacy slender amaranth (slender amaranth [5]): 5 (0)
Herbicidal Efficacy barnyard grass (barnyard grass [6]): 5 (0)
Herbicidal Efficacy velvetleaf (velvetleaf [16]; dosage 3 g a.i./are): 5 (0)
Herbicidal Efficacy velvetleaf (velvetleaf [16]; dosage 10 g a.i./are): 5 (0)
Herbicidal Efficacy green foxtail (green foxtail [17]; dosage 3 g a.i./are): 5 (0)
Herbicidal Efficacy green foxtail (green foxtail [17]; dosage 10 g a.i./are): 5 (0)
Herbicidal Efficacy large crabgrass (large crabgrass [18]; dosage 3 g a.i./are): 5 (0)
Herbicidal Efficacy large crabgrass (large crabgrass [18]; dosage 10 g a.i./are): 5 (0)
Herbicidal Efficacy cocklebur (cocklebur [19]; dosage 3 g a.i./are): 5 (0)
Herbicidal Efficacy cocklebur (cocklebur [19]; dosage 10 g a.i./are): 5 (0)
Herbicidal Efficacy slender amaranth (slender amaranth [20]; dosage 3 g a.i./are): 5 (0)
Herbicidal Efficacy slender amaranth (slender amaranth [20]; dosage 10 g a.i./are): 5 (0)
Herbicidal Efficacy barnyard grass (barnyard grass [21]; dosage 3 g a.i./are): 5 (0)
Herbicidal Efficacy barnyard grass (barnyard grass [21]; dosage 10 g a.i./are): 5 (0)
Herbicidal Efficacy velvetleaf (velvetleaf [22]; dosage 3 g a.i./are): 4 (1-20)
Herbicidal Efficacy velvetleaf (velvetleaf [22]; dosage 10 g a.i./are): 5 (0)
Herbicidal Efficacy green foxtail (green foxtail [23]; dosage 3 g a.i./are): 3 (21-40)
Herbicidal Efficacy green foxtail (green foxtail [23]; dosage 10 g a.i./are): 5 (0)
Herbicidal Efficacy large crabgrass (large crabgrass [24]; dosage 3 g a.i./are): 5 (0)
Herbicidal Efficacy large crabgrass (large crabgrass [24]; dosage 10 g a.i./are): 5 (0)
Herbicidal Efficacy cocklebur (cocklebur [25]; dosage 3 g a.i./are): 5 (0)
Herbicidal Efficacy cocklebur (cocklebur [25]; dosage 10 g a.i./are): 5 (0)
Herbicidal Efficacy slender amaranth (slender amaranth [26]; dosage 3 g a.i./are): 3 (21-40)
Herbicidal Efficacy slender amaranth (slender amaranth [26]; dosage 10 g a.i./are): 5 (0)
Herbicidal Efficacy barnyard grass (barnyard grass [27]; dosage 3 g a.i./are): 4 (1-20)
Herbicidal Efficacy barnyard grass (barnyard grass [27]; dosage 10 g a.i./are): 5 (0)
Phyto-toxicity to corn (corn [15]): 0 (100)

CCCS(=O)(=O)Oc1c(C(=O)c2cc(C)c3c(c2C)C(C)CCS3(=O)=O)cnn1CC (centres unmarked) [Compound 51, 4,5,8-trimethyl-6-(1-ethyl-5-n-propanesulfonyloxypyrazol-4-yl)carbonylthiochroman-1,1-dioxide]
Phytotoxicity to corn (corn [8]): 0 (100)
Herbicidal efficacy (E): velvetleaf (velvetleaf [9]): 5 (0)
Herbicidal efficacy (C): green foxtail (green foxtail [10]): 5 (0)
Herbicidal efficacy (A): large crabgrass (large crabgrass [11]): 5 (0)
Herbicidal efficacy (D): cocklebur (cocklebur [12]): 5 (0)
Herbicidal efficacy (F): slender amaranth (slender amaranth [13]): 5 (0)
Herbicidal efficacy (B): barnyard grass (barnyard grass [14]): 5 (0)

CCn1ncc(C(=O)c2cc(C)c3c(c2C)C(C)CCS3(=O)=O)c1OS(=O)(=O)c1ccc(C)cc1 (centres unmarked) [Compound 52, 4,5,8-trimethyl-6-(1-ethyl-5-p-toluenesulfonyloxypyrazol-4-yl)carbonylthiochroman-1,1-dioxide]
Phytotoxicity to corn (corn [8]): 0 (100)
Herbicidal efficacy (E): velvetleaf (velvetleaf [9]): 5 (0)
Herbicidal efficacy (C): green foxtail (green foxtail [10]): 5 (0)
Herbicidal efficacy (A): large crabgrass (large crabgrass [11]): 5 (0)
Herbicidal efficacy (D): cocklebur (cocklebur [12]): 5 (0)
Herbicidal efficacy (F): slender amaranth (slender amaranth [13]): 5 (0)
Herbicidal efficacy (B): barnyard grass (barnyard grass [14]): 5 (0)
